# Test results as given in patent publication US20250122173A1, “MODULATORS OF RHO-ASSOCIATED PROTEIN KINASE” (Redx Pharma Limited, priority 2022, published 2025).
# Legend:
# [1] = target: T1, ROCK2 (Homo sapiens, UniProt O75116); assay: ROCK2 inhibition assay (ADP-Glo kinase assay, called ROCK2 binding activity); format: biochemical; settings: 20 μM ATP, 1 hour pre-incubation, read-out: ROCK 2 (IC50 category)
# T1 construct: N-terminal 6His-tagged ROCK2 catalytic domain 11-552; 6His (N); purchased Dundee University, UK; host or cells: baculovirus expression system
# Procedure: ROCK2 Binding Activity: Assay for ROCK2 inhibition was performed using the protein construct N-terminal 6His-tagged ROCK2 catalytic domain 11-552 (Dundee University, UK). Protein was purified from a baculovirus expression system. Long S6 peptide ([…]) was used as substrate. Kinase reactions were carried out in 15 μl volume in a 96-well plate (black, half area) using 1.25 nM constitutively active ROCK2 kinase, 100 μM long S6 peptide, 20 μM ATP and test compound in DMSO (or DMSO only for controls). The final concentration of DMSO was 1%. Assay buffer was 50 mM HEPES pH 7.5 supplemented with 0.2 mM EDTA, 10 mM magnesium acetate, 0.01% Tween-20, 1 mM DTT and 0.01% BSA. Test compounds were pre-incubated with ROCK2 kinase for 1 hour before addition of ATP and long S6 peptide. After incubation for a further 1 hour, the amount of ADP produced was measured using ADP-Glo Kinase Assay (Promega) as per manufacturer's instructions. The luminescence was measured on a PHERAstar FS (BMG Labtech). The concentration of test compound required to inhibit ADP production by 50% (the IC50) was calculated using a four-parameter logistic function with software by Dotmatics. […] The category “+” refers to compounds with a ROCK2 or ROCK1 IC50 value of >10 μM. The category “++” refers to compounds with a ROCK2 or ROCK1 IC50 value of 10 to 3 μM. The category “+++” refers to compounds with a ROCK1 or ROCK2 IC50 value of 3 to 0.3 μM. The category “++++” refers to compounds with a ROCK1 or ROCK2 IC50 value of <0.3 μM.
# [2] = target: ROCK1 (Homo sapiens, UniProt Q13464); assay: ROCK1 inhibition assay (ROCK1 binding activity, as determined by the assay described for ROCK2); format: biochemical; settings: read-out: ROCK 1 (IC50 category)
# Procedure: Assay for ROCK2 inhibition was performed using the protein construct N-terminal 6His-tagged ROCK2 catalytic domain 11-552 (Dundee University, UK). Protein was purified from a baculovirus expression system. Long S6 peptide ([…]) was used as substrate. Kinase reactions were carried out in 15 μl volume in a 96-well plate (black, half area) using 1.25 nM constitutively active ROCK2 kinase, 100 μM long S6 peptide, 20 μM ATP and test compound in DMSO (or DMSO only for controls). The final concentration of DMSO was 1%. Assay buffer was 50 mM HEPES pH 7.5 supplemented with 0.2 mM EDTA, 10 mM magnesium acetate, 0.01% Tween-20, 1 mM DTT and 0.01% BSA. Test compounds were pre-incubated with ROCK2 kinase for 1 hour before addition of ATP and long S6 peptide. After incubation for a further 1 hour, the amount of ADP produced was measured using ADP-Glo Kinase Assay (Promega) as per manufacturer's instructions. The luminescence was measured on a PHERAstar FS (BMG Labtech). The concentration of test compound required to inhibit ADP production by 50% (the IC50) was calculated using a four-parameter logistic function with software by Dotmatics. […] The category “+” refers to compounds with a ROCK2 or ROCK1 IC50 value of >10 μM. The category “++” refers to compounds with a ROCK2 or ROCK1 IC50 value of 10 to 3 μM. The category “+++” refers to compounds with a ROCK1 or ROCK2 IC50 value of 3 to 0.3 μM. The category “++++” refers to compounds with a ROCK1 or ROCK2 IC50 value of <0.3 μM.
# T1 sequence (O75116 11-552): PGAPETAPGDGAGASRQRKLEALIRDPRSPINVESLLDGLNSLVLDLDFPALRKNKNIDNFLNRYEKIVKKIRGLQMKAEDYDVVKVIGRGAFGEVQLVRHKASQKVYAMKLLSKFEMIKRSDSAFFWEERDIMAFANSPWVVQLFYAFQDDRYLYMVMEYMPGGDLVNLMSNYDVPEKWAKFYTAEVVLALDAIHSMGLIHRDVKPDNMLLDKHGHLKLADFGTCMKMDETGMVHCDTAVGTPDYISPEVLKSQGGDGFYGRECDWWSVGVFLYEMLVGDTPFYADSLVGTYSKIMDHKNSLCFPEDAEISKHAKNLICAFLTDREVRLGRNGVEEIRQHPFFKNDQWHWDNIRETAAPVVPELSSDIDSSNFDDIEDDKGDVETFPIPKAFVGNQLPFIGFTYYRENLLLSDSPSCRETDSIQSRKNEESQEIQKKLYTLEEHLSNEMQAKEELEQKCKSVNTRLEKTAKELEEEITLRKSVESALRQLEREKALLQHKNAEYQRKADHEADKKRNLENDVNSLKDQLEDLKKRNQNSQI
# Chain of ROCK1 (Q13464 whole entry, the tested form may be a part): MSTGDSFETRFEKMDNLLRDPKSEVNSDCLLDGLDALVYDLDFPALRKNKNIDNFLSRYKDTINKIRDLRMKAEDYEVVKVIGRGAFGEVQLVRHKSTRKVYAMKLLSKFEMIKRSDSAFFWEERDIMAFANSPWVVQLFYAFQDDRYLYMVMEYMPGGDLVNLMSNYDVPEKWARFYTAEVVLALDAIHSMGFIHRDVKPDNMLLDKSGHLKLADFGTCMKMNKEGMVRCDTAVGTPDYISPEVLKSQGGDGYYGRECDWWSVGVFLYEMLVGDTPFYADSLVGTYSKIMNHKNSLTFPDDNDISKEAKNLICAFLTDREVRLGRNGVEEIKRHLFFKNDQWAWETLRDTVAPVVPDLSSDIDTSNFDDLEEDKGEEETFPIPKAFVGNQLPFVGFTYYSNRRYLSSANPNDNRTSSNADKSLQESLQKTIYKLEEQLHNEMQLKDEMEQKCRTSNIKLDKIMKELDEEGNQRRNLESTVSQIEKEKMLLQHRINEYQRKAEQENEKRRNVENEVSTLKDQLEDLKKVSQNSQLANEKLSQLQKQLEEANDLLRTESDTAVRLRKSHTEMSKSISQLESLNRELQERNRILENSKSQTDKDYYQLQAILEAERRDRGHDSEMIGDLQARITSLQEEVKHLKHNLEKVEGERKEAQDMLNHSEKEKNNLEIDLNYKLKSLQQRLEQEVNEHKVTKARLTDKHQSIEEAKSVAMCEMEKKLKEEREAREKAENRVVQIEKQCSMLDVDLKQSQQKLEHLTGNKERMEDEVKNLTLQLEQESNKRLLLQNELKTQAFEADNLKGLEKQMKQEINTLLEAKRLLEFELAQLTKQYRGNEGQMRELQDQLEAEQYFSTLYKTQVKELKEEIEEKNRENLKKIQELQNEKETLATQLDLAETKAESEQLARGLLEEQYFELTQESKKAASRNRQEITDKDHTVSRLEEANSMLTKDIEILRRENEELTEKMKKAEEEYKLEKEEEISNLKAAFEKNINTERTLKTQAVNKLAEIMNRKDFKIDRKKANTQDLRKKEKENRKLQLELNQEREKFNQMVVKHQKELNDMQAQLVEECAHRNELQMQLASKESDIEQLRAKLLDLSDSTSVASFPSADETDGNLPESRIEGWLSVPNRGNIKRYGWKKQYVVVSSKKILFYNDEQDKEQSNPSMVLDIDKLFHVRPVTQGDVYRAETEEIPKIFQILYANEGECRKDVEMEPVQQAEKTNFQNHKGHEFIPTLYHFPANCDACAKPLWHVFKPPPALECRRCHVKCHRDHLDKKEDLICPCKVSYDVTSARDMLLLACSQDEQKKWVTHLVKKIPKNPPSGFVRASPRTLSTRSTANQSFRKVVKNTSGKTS
Structure (SMILES),IC50 [1],IC50 [2]
CCn1nc(-c2ccc(-c3ccc(C4CC4)nc3)c(C)c2)nc1Nc1ccc2c(c1)C1(CC1)NC2=O [Example 49],< 0.3 µM,> 10 µM
CCn1nc(-c2ccc(-c3ccc(C4CC4)nc3)cc2C)nc1Nc1ccc2c(c1)C(C)NC2=O (stereo not drawn) [Example 50],< 0.3 µM,> 10 µM
CCn1nc(-c2ccc(-c3ccc(C)nc3)c(C)c2)nc1Nc1ccc2c(c1)C1(CC1)NC2=O [Example 51],< 0.3 µM,> 10 µM
CCn1nc(-c2ccc(-c3ccc(C4CC4)cn3)c(C)c2)nc1Nc1ccc2c(c1)CNC2=O [Example 52],< 0.3 µM,> 10 µM
CCn1nc(-c2ccc(-c3ccc(C)cn3)c(C)c2)nc1Nc1ccc2c(c1)C(C)NC2=O (stereo not drawn) [Example 53],< 0.3 µM,> 10 µM
CCn1nc(-c2ccc(C3CCNCC3)cc2)nc1Nc1ccc2c(c1)CNC2=O [Example 54],3 to 10 µM,> 10 µM
CCn1nc(-c2ccc(-c3ccc(C4CC4)nc3)cc2)nc1Nc1ccc2c(c1)C1(CC1)NC2=O [Example 55],< 0.3 µM,> 10 µM
CCn1nc(-c2ccc(-c3ccc(C4CC4)nc3)cc2C)nc1Nc1cc2c(cc1C)C(=O)NC2C (stereo not drawn) [Example 56],< 0.3 µM,3 to 10 µM
CCn1nc(-c2ccc(-c3ccc(C)nc3)c(F)c2)nc1Nc1cc2c(cc1C)C(=O)NC2C (stereo not drawn) [Example 57],< 0.3 µM,> 10 µM
CCn1nc(-c2ccc(-c3cnc(C4CC4)n3C)cc2)nc1Nc1cc2c(cc1C)C(=O)NC2C (stereo not drawn) [Example 58],< 0.3 µM,3 to 10 µM
CCn1nc(-c2ccc(-n3cnc(C4CC4)c3)c(C)c2)nc1Nc1cc2c(cc1C)C(=O)NC2C (stereo not drawn) [Example 59],< 0.3 µM,3 to 10 µM
CCn1nc(-c2ccc(-c3ccc(C4CC4)nc3)nc2)nc1Nc1ccc2c(c1)C(C)NC2=O (stereo not drawn) [Example 60],< 0.3 µM,> 10 µM
CCn1nc(-c2ccc(-c3ccc(C)nc3)cc2)nc1Nc1ccc2c(c1)C(C)NC2=O (stereo not drawn) [Example 61],< 0.3 µM,3 to 10 µM
CCn1nc(-c2ccc(-c3ccc(C4CC4)nc3)c(F)c2)nc1Nc1cc2c(cc1C)C(=O)NC2C (stereo not drawn) [Example 62],< 0.3 µM,> 10 µM
CCn1nc(-c2ccc(-c3ccc(C)nc3)cc2C)nc1Nc1ccc2c(c1)C(C)NC2=O (stereo not drawn) [Example 63],< 0.3 µM,3 to 10 µM
CCn1nc(-c2ccc(-c3cnc(C4CC4)n3C)cc2)nc1Nc1ccc2c(c1)C(C)NC2=O (stereo not drawn) [Example 64],< 0.3 µM,3 to 10 µM
CCn1nc(-c2ccc(-c3cnc(C4CC4)n3C)c(C)c2)nc1Nc1ccc2c(c1)C(C)NC2=O (stereo not drawn) [Example 65],< 0.3 µM,3 to 10 µM
CCn1nc(-c2ccc(-c3ccc(C4CC4)nc3)c(C)c2)nc1Nc1ccc2c(c1)C(C)NC2=O (stereo not drawn) [Example 66],< 0.3 µM,> 10 µM
CCn1nc(-c2ccc(C3=CCNCC3)cc2)nc1Nc1ccc2c(c1)CNC2=O [Example 67],3 to 10 µM,3 to 10 µM
CCn1nc(-c2ccc(C3=CCNC3)cc2)nc1Nc1ccc2c(c1)CNC2=O [Example 68],3 to 10 µM,> 10 µM
CCn1nc(-c2ccc(-c3ccc(C)nc3)cc2)nc1Nc1ccc2c(c1)C1(CC1)NC2=O [Example 69],< 0.3 µM,> 10 µM
CCn1nc(-c2ccc(-c3ccc(C4CC4)nc3)cc2)nc1Nc1cc2c(cc1C)C(=O)NC2C (stereo not drawn) [Example 70],< 0.3 µM,3 to 10 µM
CCn1nc(-c2ccc(-c3ccc(C)nc3)nc2)nc1Nc1cc2c(cc1C)C(=O)NC2C (stereo not drawn) [Example 71],< 0.3 µM,> 10 µM
CCn1nc(-c2ccc(-c3ccc(C)nc3)c(C)c2)nc1Nc1ccc2c(c1)C(C)NC2=O (stereo not drawn) [Example 72],< 0.3 µM,> 10 µM

Structure (SMILES),IC50 [1],IC50 [2]
CCn1nc(-c2ccc(-c3ccc(C4CC4)nc3)cc2F)nc1Nc1cc2c(cc1C)C(=O)NC2C (stereo not drawn) [Example 73],< 0.3 µM,3 to 10 µM
CCn1nc(-c2ccc(-c3ccc(C4CC4)nc3)cc2F)nc1Nc1ccc2c(c1)C(C)NC2=O (stereo not drawn) [Example 74],< 0.3 µM,3 to 10 µM
CCn1nc(-c2ccc(-c3ccc(C)nc3)c(C)c2)nc1Nc1cc2c(cc1C)C(=O)NC2C (stereo not drawn) [Example 75],< 0.3 µM,3 to 10 µM
CCn1nc(-c2ccc(-n3cnc(C4CC4)c3)c(C)c2)nc1Nc1ccc2c(c1)C(C)NC2=O (stereo not drawn) [Example 76],< 0.3 µM,3 to 10 µM
CCn1nc(-c2cc(C)c(-c3ccc(C)nc3)cc2C)nc1Nc1cc2c(cc1C)C(=O)NC2C (stereo not drawn) [Example 77],< 0.3 µM,3 to 10 µM
CCn1nc(-c2ccc(-c3ccc(C)cn3)c(F)c2)nc1Nc1ccc2c(c1)CNC2=O [Example 79],< 0.3 µM,> 10 µM
CCn1nc(-c2ccc(-c3ccc(C4CC4)nc3)c(C)c2)nc1Nc1cc2c(cc1F)C(=O)NC2C (stereo not drawn) [Example 80],< 0.3 µM,> 10 µM
CCn1nc(-c2ccc(-c3ccc(C)nc3)cc2F)nc1Nc1ccc2c(c1)C(C)NC2=O (stereo not drawn) [Example 81],< 0.3 µM,> 10 µM
CCn1nc(-c2ccc(-n3cnc(C4CC4)c3)c(F)c2)nc1Nc1cc2c(cc1C)C(=O)NC2C (stereo not drawn) [Example 82],< 0.3 µM,3 to 10 µM
CCn1nc(-c2cc(C)c(-c3ccc(C)nc3)cc2F)nc1Nc1cc2c(cc1C)C(=O)NC2C (stereo not drawn) [Example 83],< 0.3 µM,3 to 10 µM
CCn1nc(-c2ccc(-c3ccc(C4CC4)nc3)c(F)c2)nc1Nc1cc2c(cc1F)C(=O)NC2C (stereo not drawn) [Example 85],< 0.3 µM,> 10 µM
CCn1nc(-c2ccc(-n3cnc(C4CC4)c3)c(F)c2)nc1Nc1ccc2c(c1)C(C)NC2=O (stereo not drawn) [Example 86],< 0.3 µM,3 to 10 µM
CCn1nc(-c2ccc(-c3cc(C)cnc3C)c(C)c2)nc1Nc1cc2c(cc1C)C(=O)NC2C (stereo not drawn) [Example 87],3 to 10 µM,> 10 µM
CCn1nc(-c2cc(C)c(-c3ccc(C4CC4)nc3)cc2C)nc1Nc1cc2c(cc1C)C(=O)NC2C (stereo not drawn) [Example 88],< 0.3 µM,> 10 µM
CCn1nc(-c2ccc(-c3ccc(C)cn3)c(C)c2)nc1Nc1cc2c(cc1C)C(=O)NC2C (stereo not drawn) [Example 89],< 0.3 µM,> 10 µM
CCn1nc(-c2ccc(-c3ncc(C)cc3C)c(C)c2)nc1Nc1cc2c(cc1C)C(=O)NC2C (stereo not drawn) [Example 90],3 to 10 µM,> 10 µM
CCn1nc(-c2ccc(-c3cc(C)c(C)cn3)c(C)c2)nc1Nc1cc2c(cc1C)C(=O)NC2C (stereo not drawn) [Example 91],< 0.3 µM,3 to 10 µM
CCn1nc(-c2ccc(-c3ccc(C)nc3C)c(C)c2)nc1Nc1cc2c(cc1C)C(=O)NC2C (stereo not drawn) [Example 92],< 0.3 µM,> 10 µM
CCn1nc(-c2ccc(-c3ccc(C)nc3)cc2)nc1Nc1ccc2c(c1)C(F)NC2=O (stereo not drawn) [Example 93],< 0.3 µM,3 to 10 µM
CCn1nc(-c2cc(C)c(-c3ccc(C4CC4)nc3)cc2F)nc1Nc1cc2c(cc1C)C(=O)NC2C (stereo not drawn) [Example 94],< 0.3 µM,3 to 10 µM
CCn1nc(-c2cc(C)c(-c3ccc(C)cn3)cc2C)nc1Nc1cc2c(cc1C)C(=O)NC2C (stereo not drawn) [Example 95],< 0.3 µM,> 10 µM
CCn1nc(-c2ccc(-c3ccc(C4CC4)nc3)nc2)nc1Nc1cc2c(cc1C)C(=O)NC2C (stereo not drawn) [Example 97],< 0.3 µM,3 to 10 µM
CCn1nc(-c2cc(C)c(-c3ccc(C)nc3)cc2F)nc1Nc1ccc2c(c1)C(C)NC2=O (stereo not drawn) [Example 98],< 0.3 µM,3 to 10 µM
CCn1nc(-c2cc(C)c(-c3cn(C)c(C4CC4)n3)cc2C)nc1Nc1ccc2c(c1)C(C)NC2=O (stereo not drawn) [Example 99],< 0.3 µM,3 to 10 µM
